Values joined by “and” are separate entries in the source; they are usually repeats but may differ in a detail not shown here. Identical values can stand only once. Inconclusive results and toxic doses are left out.
Test system: L1210 leukemia ip in BDF1 mice, survival T/C
Test: NCI In Vivo Anticancer Drug Screen. Data for tumor model L1210 Leukemia (intraperitoneal) in B6D2F1 (BDF1) mice
Settings: endpoint: mean survival time, higher = longer survival
How it was run: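 Tumor cells were implanted, animals were treated, and survival was followed. The result divides the treated measurement by the vehicle-control measurement.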

[1] = dose: 100.0 mg/kg/injection, schedule: Q04DX002 (ip), vehicle: saline with Tween-80
[2] = dose: 200.0 mg/kg/injection, schedule: Q04DX002 (ip), vehicle: saline with Tween-80
[3] = dose: 400.0 mg/kg/injection, schedule: Q04DX002 (ip), vehicle: saline with Tween-80
[4] = dose: 100.0 mg/kg/injection, schedule: Q01DX001 (ip), vehicle: carboxymethylcellulose (CMC)
[5] = dose: 200.0 mg/kg/injection, schedule: Q01DX001 (ip), vehicle: carboxymethylcellulose (CMC)
[6] = dose: 400.0 mg/kg/injection, schedule: Q01DX001 (ip), vehicle: carboxymethylcellulose (CMC)
[7] = dose: 100.0 mg/kg/injection, schedule: Q01DX001 (ip), vehicle: saline
[8] = dose: 200.0 mg/kg/injection, schedule: Q01DX001 (ip), vehicle: saline
[9] = dose: 400.0 mg/kg/injection, schedule: Q01DX001 (ip), vehicle: saline
[10] = dose: 100.0 mg/kg/injection, schedule: Q01DX009 (ip), vehicle: Klucel (hydroxypropylcellulose) (HPC)
[11] = dose: 200.0 mg/kg/injection, schedule: Q01DX009 (ip), vehicle: Klucel (hydroxypropylcellulose) (HPC)
[12] = dose: 400.0 mg/kg/injection, schedule: Q01DX009 (ip), vehicle: Klucel (hydroxypropylcellulose) (HPC)
[13] = dose: 100.0 mg/kg/injection, schedule: Q04DX003 (ip), vehicle: saline with Tween-80
[14] = dose: 200.0 mg/kg/injection, schedule: Q04DX003 (ip), vehicle: saline with Tween-80
[15] = dose: 400.0 mg/kg/injection, schedule: Q04DX003 (ip), vehicle: saline with Tween-80
[16] = dose: 100.0 mg/kg/injection, schedule: Q04DX003 (ip), vehicle: Klucel (hydroxypropylcellulose) (HPC)
[17] = dose: 200.0 mg/kg/injection, schedule: Q04DX003 (ip), vehicle: Klucel (hydroxypropylcellulose) (HPC)
[18] = dose: 400.0 mg/kg/injection, schedule: Q04DX003 (ip), vehicle: Klucel (hydroxypropylcellulose) (HPC)

With `O=C1N(C[P+](c2ccccc2)(c2ccccc2)c2ccccc2)CCCN1C[P+](c1ccccc1)(c1ccccc1)c1ccccc1` the T/C (dose: 1.56 mg/kg/injection, schedule: Q01DX009 (ip), vehicle: saline) was 96 % of control, the T/C (dose: 1.56 mg/kg/injection, schedule: Q04DX002 (ip), vehicle: saline) was 150 % of control and the T/C (dose: 3.12 mg/kg/injection, schedule: Q01DX005 (ip), vehicle: saline) was 100 % of control. For the same compound, the T/C (dose: 3.12 mg/kg/injection, schedule: Q01DX009 (ip), vehicle: saline) was 93 % of control, the T/C (dose: 3.12 mg/kg/injection, schedule: Q04DX002 (ip), vehicle: saline) was 88 % of control and the T/C (dose: 6.25 mg/kg/injection, schedule: Q01DX005 (ip), vehicle: saline) was 94 % of control. For the same compound, the T/C (dose: 6.25 mg/kg/injection, schedule: Q01DX009 (ip), vehicle: saline) was 86 % of control and the T/C (dose: 6.25 mg/kg/injection, schedule: Q04DX002 (ip), vehicle: saline) was 95 % of control.

In the case of `CCNC(=S)NNC(=O)c1ccc(N=NN(C)C)cc1`, the T/C [1] is reported as 100 % of control, the T/C [2] is reported as 94 % of control and the T/C [3] is reported as 100 % of control.

With `CC(=O)c1ccc2c(c1)C(=O)c1ccccc1-2` the T/C [4] was 92 % of control, the T/C [5] was 93 % of control and the T/C [6] was 93 % of control.

`CC1(O)OC(n2c(Br)nc3c(N)ncnc32)C(O)C1O` (stereo unspecified) was tested, and the T/C [4] was 103 % of control, the T/C [5] was 101 % of control and the T/C [6] was 95 % of control.

With `O=C1CCCCCCCCCOC(=O)CCCCCCCCCO1` the T/C (dose: 100.0 mg/kg/injection, schedule: Q01DX001 (ip), vehicle: Klucel (hydroxypropylcellulose) (HPC)) was 94 % of control, the T/C (dose: 200.0 mg/kg/injection, schedule: Q01DX001 (ip), vehicle: Klucel (hydroxypropylcellulose) (HPC)) was 94 % of control and the T/C (dose: 400.0 mg/kg/injection, schedule: Q01DX001 (ip), vehicle: Klucel (hydroxypropylcellulose) (HPC)) was 91 % of control.

For `O=C(COC(=O)c1c(Cl)c(Cl)c(Cl)c(Cl)c1C(=O)O)c1ccc(-c2ccccc2)cc1`, the T/C [7] was 94 % of control, the T/C [8] was 102 % of control and the T/C [9] was 91 % of control.

With `N#CC(c1ccc(Cl)cc1)c1ccc(N(CCO)CCO)cc1` (stereo unspecified) the T/C [7] was 99 % of control, the T/C (dose: 100.0 mg/kg/injection, schedule: Q04DX003 (ip), vehicle: acetone) was 103 % of control and the T/C [8] was 99 % of control. The T/C (dose: 200.0 mg/kg/injection, schedule: Q04DX003 (ip), vehicle: acetone) was 97 % of control, the T/C [9] was 86 % of control and the T/C (dose: 400.0 mg/kg/injection, schedule: Q04DX003 (ip), vehicle: acetone) was 91 % of control.

In the case of `O=C(Nc1ccccc1C(F)(F)F)N(Cc1ccccc1)c1ccccc1`, the T/C [10] is reported as 93 % of control, the T/C [11] is reported as 92 % of control and the T/C [12] is reported as 98 % of control.

With `Cc1cc(Cl)ccc1O/C(=C/C(=O)O)C(=O)O` the T/C [1] was 107 % of control, the T/C [2] was 107 % of control and the T/C [3] was 100 % of control.

In the case of `NC(N)=NC(N)=Nc1ccc2c(Cl)c(Cl)ccc2c1`, the T/C (dose: 2.5 mg/kg/injection, schedule: Q01DX009 (ip), vehicle: saline sonified) is reported as 92 % of control, the T/C (dose: 5.0 mg/kg/injection, schedule: Q01DX009 (ip), vehicle: saline sonified) is reported as 101 % of control and the T/C (dose: 10.0 mg/kg/injection, schedule: Q01DX009 (ip), vehicle: saline sonified) is reported as 101 % of control. For the same compound, the T/C (dose: 12.5 mg/kg/injection, schedule: Q04DX003 (ip), vehicle: saline with Tween-80) was 105 % of control, the T/C (dose: 25.0 mg/kg/injection, schedule: Q04DX003 (ip), vehicle: saline with Tween-80) was 114 % of control and the T/C (dose: 50.0 mg/kg/injection, schedule: Q04DX003 (ip), vehicle: saline with Tween-80) was 100 % of control. For the same compound, the T/C (dose: 100.0 mg/kg/injection, schedule: Q04DX003 (ip), vehicle: saline sonified) was 101 % of control.

With `CCCCCCCCCCCCN=C(N)N/C(N)=N/S(=O)(=O)c1ccc(OCCC)cc1` the T/C (dose: 100.0 mg/kg/injection, schedule: Q04DX002 (ip), vehicle: Klucel (hydroxypropylcellulose) (HPC)) was 106 % of control, the T/C (dose: 200.0 mg/kg/injection, schedule: Q04DX002 (ip), vehicle: Klucel (hydroxypropylcellulose) (HPC)) was 100 % of control and the T/C (dose: 400.0 mg/kg/injection, schedule: Q04DX002 (ip), vehicle: Klucel (hydroxypropylcellulose) (HPC)) was 95 % of control.

In the case of `CC(/C=C/c1ccccc1)=N\O`, the T/C (dose: 100.0 mg/kg/injection, schedule: Q01DX009 (ip), vehicle: saline sonified) is reported as 91 % of control, the T/C (dose: 200.0 mg/kg/injection, schedule: Q01DX009 (ip), vehicle: saline sonified) is reported as 94 % of control and the T/C (dose: 400.0 mg/kg/injection, schedule: Q01DX009 (ip), vehicle: saline sonified) is reported as 100 % of control.

`O=C1CCC(C(=O)NC(Cc2cncn2Cc2ccccc2)C(=O)NC(COCc2ccccc2)Cc2c[nH]c3ccccc23)N1` (stereo unspecified) was tested, and the T/C (dose: 100.0 mg/kg/injection, schedule: Q01DX009 (ip), vehicle: saline with Tween-80) was 96 % of control, the T/C (dose: 200.0 mg/kg/injection, schedule: Q01DX009 (ip), vehicle: saline with Tween-80) was 104 % of control and the T/C (dose: 400.0 mg/kg/injection, schedule: Q01DX009 (ip), vehicle: saline with Tween-80) was 94 % of control.

In the case of `Nc1ccc(N2CCNCC2)cc1`, the T/C (dose: 50.0 mg/kg/injection, schedule: Q01DX009 (ip), vehicle: saline) is reported as 101 % of control, the T/C (dose: 100.0 mg/kg/injection, schedule: Q01DX009 (ip), vehicle: saline) is reported as 107 % of control and the T/C (dose: 200.0 mg/kg/injection, schedule: Q01DX009 (ip), vehicle: saline) is reported as 111 % of control.

`Cc1ccccc1OC(=O)c1ccccc1` was tested, and the T/C [13] was 107 % of control, the T/C [14] was 104 % of control and the T/C [15] was 104 % of control.

`Cc1ccc(S(=O)(=O)NC(=O)C(C)Br)cc1` (stereo unspecified) was tested, and the T/C (dose: 150.0 mg/kg/injection, schedule: Q01DX001 (ip), vehicle: steriod suspending solution) was 95 % of control and the T/C (dose: 300.0 mg/kg/injection, schedule: Q01DX001 (ip), vehicle: steriod suspending solution) was 95 % of control.

In the case of `CC(=O)NC(Cc1cnc[nH]1)C(=O)O` (stereo unspecified), the T/C [7] is reported as 97 % of control, the T/C [8] is reported as 98 % of control and the T/C [9] is reported as 97 % of control.

`O=C(O)/C(=C\c1ccc(Cl)cc1)c1ccc(Cl)cc1` was tested, and the T/C [10] was 104 % of control, the T/C [16] was 95 % of control and the T/C [11] was 89 % of control. For the same compound, the T/C [17] was 91 % of control and the T/C [18] was 95 % of control.

For `CCOC(=O)C1(C(C)=O)CC=CC1`, the T/C [7] was 100 % of control, the T/C [8] was 104 % of control and the T/C [9] was 100 % of control.

`CCCCN(CCCC)CCCOc1cc(C)ccc1C(C)C` was tested, and the T/C (dose: 3.0 mg/kg/injection, schedule: Q04DX003 (ip), vehicle: saline) was 97 % of control, the T/C (dose: 6.0 mg/kg/injection, schedule: Q04DX003 (ip), vehicle: saline) was 105 % of control and 106 % of control and the T/C (dose: 12.0 mg/kg/injection, schedule: Q01DX009 (ip), vehicle: Klucel (hydroxypropylcellulose) (HPC)) was 102 % of control. The T/C (dose: 12.0 mg/kg/injection, schedule: Q04DX003 (ip), vehicle: saline) was 95 % of control and 107 % of control, the T/C (dose: 25.0 mg/kg/injection, schedule: Q01DX009 (ip), vehicle: Klucel (hydroxypropylcellulose) (HPC)) was 93 % of control and the T/C (dose: 25.0 mg/kg/injection, schedule: Q04DX003 (ip), vehicle: saline) was 97 % of control and 98 % of control and 105 % of control. The T/C (dose: 50.0 mg/kg/injection, schedule: Q01DX009 (ip), vehicle: Klucel (hydroxypropylcellulose) (HPC)) was 109 % of control and the T/C (dose: 100.0 mg/kg/injection, schedule: Q04DX003 (ip), vehicle: saline) was 109 % of control.

With `CC1C(N2CCOCC2)CS1(=O)=O` (stereo unspecified) the T/C [10] was 92 % of control, the T/C [16] was 93 % of control and the T/C [11] was 94 % of control. For the same compound, the T/C [17] was 98 % of control, the T/C [12] was 103 % of control and the T/C [18] was 98 % of control.

For `CC(C)(N)CNCC(C)(C)N`, the T/C [7] was 97 % of control and the T/C [8] was 111 % of control.

In the case of `CCN(C=O)c1ccc(NC=O)cc1`, the T/C (dose: 50.0 mg/kg/injection, schedule: Q01DX001 (ip), vehicle: saline with Tween-80) is reported as 104 % of control, the T/C (dose: 100.0 mg/kg/injection, schedule: Q01DX001 (ip), vehicle: saline with Tween-80) is reported as 94 % of control and 100 % of control and the T/C [1] is reported as 103 % of control. The T/C [13] was 97 % of control, the T/C (dose: 200.0 mg/kg/injection, schedule: Q01DX001 (ip), vehicle: saline with Tween-80) was 94 % of control and 91 % of control and the T/C [2] was 97 % of control. The T/C [14] was 95 % of control and 91 % of control, the T/C (dose: 400.0 mg/kg/injection, schedule: Q01DX001 (ip), vehicle: saline with Tween-80) was 94 % of control and the T/C [3] was 101 % of control. For the same compound, the T/C [15] was 103 % of control and 108 % of control.
